Measurements from publication PMC3072462 (Journal of medicinal chemistry, 2011).
pIC50: −log10 of the molar value.

What was measured:
[1] = target: recombinant HIV-1 IN (3′P) (Human immunodeficiency virus type 1 group M subtype B, UniProt P04585); experiment: In vitro integrase catalytic gel assay, 3′ processing; format: biochemical
[2] = Compound cytotoxicity / cell viability in CEM-SS cells; format: cell-based; conditions: human
[3] = test system: MT-4 cells; format: cell-based; conditions: human
[4] = test system: HIV IN mutant Y143R; conditions: values from two independent experiments
[5] = test system: HIV-1IIIB; experiment: HIV cytoprotection; conditions: HIV-1IIIB in CEM-SS cells

With `CC(C)c1c(Cc2ccccc2)n(COCc2cccc(Cl)c2F)c(=O)n(O)c1=O` [Compound 13, 6-Benzyl-1-((3-chloro-2-fluorobenzyloxy)methyl)-3-hydroxy-5-isopropylpyrimidine-2,4(1H,3H)-dione] the pIC50 [1] was < 3.95, the viability at 6 days, 10 µM [2] was 100% and the “TC50 (toxicity observed)” value [3] was “c Toxicity observed (TC50 = 2.0 μM)”. For the same compound, the “Fold-resistance IC50(mutant)/IC50(WT)” value [4] was 7 and the “TI (therapeutic index, CC50/EC50)” value [5] was >105.
